In paper PMC6024679 (Toxins, 2018):
Values joined by “and” are separate entries in the source; they are usually repeats but may differ in a detail not shown here. Equal entries are not always repeated. Where two headings read alike, the source gives them in different places.

Experiments:
[1] = tested on: mammalian NaVs; conditions: cited from earlier work
Source text: (§1) The first insect NaV gene (para) was cloned from Drosophila melanogaster. After that, lots of studies had cloned NaV genes from many arthropod pests and disease vectors, and most insects have only one para-like NaV gene. […] We speculated that μ-SPRTX-Hv2 is also a broad-spectrum insecticide but it is yet to be experimentally determined. In Blattella ger ...

[2] = tested on: NaV1.7 channel; conditions: physiological depolarizing voltages; cited from earlier work
Source text: as §1

[3] = tested on: meal beetles; conditions: cited from earlier work
[4] = tested on: cockroaches; conditions: cited from earlier work
[5] = tested on: PaNaV1 and BgNaV1 channels; conditions: β-Diguetoxin-Dc1a; cited from earlier work
[6] = tested on: mouse; conditions: 7.0 μg/g (1.7 nmol/g), intraperitoneal, single dose, n = 3
[7] = tested on: tetrodotoxin sensitive NaVs (TTX-S NaVs) in rat DRG neurons; assay type: cell-based
[8] = tested on: hNaV1.7; assay: Whole-cell patch-clamp of NaV1.7 in HEK293T cells; assay type: cell-based, human (h, as printed in hNaV1.7)
[9] = tested on: HVA CaVs in rat DRG neurons; assay: Whole-cell patch-clamp of HVA CaVs in rat DRG neurons; assay type: cell-based
[10] = tested on: NaVs in cockroach DUM neurons; assay: Whole-cell patch-clamp of voltage-gated sodium channels in cockroach DUM neurons; assay type: cell-based
[11] = tested on: hNaV1.5; assay: Whole-cell patch-clamp of NaV1.5 in HEK293T cells; assay type: cell-based, human (h, as printed in hNaV1.5)
[12] = tested on: rNaV1.8; assay: Whole-cell patch-clamp of NaV1.8 in ND7/23 cells; assay type: cell-based, rat (r, as printed in rNaV1.8)
[13] = tested on: DUM HVA CaVs; assay: Whole-cell patch-clamp of HVA calcium channels in cockroach DUM neurons; assay type: cell-based
[14] = tested on: cockroaches; assay: Lethal effect in cockroaches after injection of toxin, LD50 at 24 h; assay type: in vivo, cockroach
Description: Fifty-six cockroaches were randomly divided into eight groups (n = 7 in each group). Seven groups were used as experimental groups, to which 10 μL toxin solution (dissolved in saline) was injected between the fourth and fifth sternite, at single dose of 0.29, 0.53, 0.96, 1.74, 3.09, 5.56, or 10 nmol/g for each group. The eighth group was used as experimental control and was injected with 10 μL saline. Lethal effect was observed 24 h after injection. The LD50 value was determined by using the improved Karber’s method. For testing the toxicity of μ-SPRTX-Hv2 to mouse, toxin at a single dose of 1.7 nmol/g (7.0 µg/g) was injected intraperitoneally.

[15] = tested on: insect CaVs; conditions: ω-hexatoxin-Hv1a; cited from earlier work

For `NC1=N[C@H](O)[C@H]2[C@H]3O[C@]4(O)O[C@@H]([C@@H](O)[C@@]2(N1)[C@@H]4O)[C@]3(O)CO` [TTX, tetrodotoxin], the “mode of action on mammalian NaVs” value [1] is given as “physically blocking the ion conducting pathway”.
For HWTX-IV: toxin acting on NaV1.7 channel, the “effect on steady-state activation curve” value [2] is listed as “did not change the steady-state activation curve”.
In the case of brachyin, the LD50 [3] is listed as 1.55 pm/g of body weight and the LD50 [4] is listed as 1.02 pm/g of body weight.
For β-Diguetoxin-Dc1a, the “selectivity between PaNaV1 and BgNaV1” value [5] is given as “showed selectivity between the highly conserved PaNaV1 and BgNaV1 channels”.
For μ-sparatoxin-Hv2 [μ-SPRTX-Hv2], the “envenomation symptoms in mouse” value [6] was “no obvious envenomation symptoms were observed”, the “effect on TTX-S NaVs currents in rat DRG neurons” value [7] was “did not affect the currents” and the “effect on NaV1.7 currents” value [8] was “did not affect”. The “effect on HVA CaVs currents in rat DRG neurons” value [9] was “did not affect the currents”, the IC50 [10] was 0.834 µM and 0.718 µM and the “Ka (slope factor, steady-state activation) after toxin treatment” value [10] was 4.4 ± 0.4 mV. The “Kh (slope factor, steady-state inactivation) after toxin treatment” value [10] was −5.4 ± 0.3 mV, the “Va (steady-state activation) after toxin treatment” value [10] was −23.0 ± 3.7 mV and the “Vh (steady-state inactivation) after toxin treatment” value [10] was −38.7 ± 4.1 mV. The “association time constant (τon)” value [10] was 13.8 ± 1.7 s, the “block of currents across voltages (I–V relationship)” value [10] was “blocked the currents at all voltage tested” and the “effect on initial activation voltage, peak current voltage and reversal voltage” value [10] was “did not affect the initial activation voltage, the peak current voltage and the reversal voltage”. The “reversibility of block on washing by bath solution perfusion” value [10] was “could not be washed off by bath solution perfusion”, the “effect on NaV1.5 currents” value [11] was “did not affect” and the “effect on NaV1.8 currents” value [12] was “did not affect”. For the same compound, the “effect on DUM HVA CaVs currents” value [13] was “did not affect the currents of DUM HVA CaVs”, the LD50 ([14]; cockroaches, calculated) was 11.7 μg/g of body weight and the LD50 ([14]; in vivo, ip) was 3.6 nmol/g of body weight. For the same compound, the LD50 ([14]; synthetic toxin, cockroaches, 10 μL in saline injected between fourth and fifth sternite, single dose 0.29-10 nmol/g, n = 7 per group, 24 h after injection, improved Karber's method) was 2.8 nmol/g of body weight.
In the case of ω-hexatoxin-Hv1a, the “effect on insect CaVs” value [15] is listed as “acting on the insect CaVs”.
